# Assay results published in the supplement of paper PMC10307832.
# Tests used:
# Test in all cases: relative viability (nuclei count vs DMSO), 5 days (fraction); higher = more cells survive
# Carboplatin + Bortezomib = compound: C1CC(C1)(C(=O)O)C(=O)O.[NH2-].[NH2-].[Pt+2] [Carboplatin] + CC(C)C[C@H](NC(=O)[C@H](Cc1ccccc1)NC(=O)c1cnccn1)B(O)O [Bortezomib] (partner 0.002 µM)
# Outline: (§1)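 Cells from lung cancer lines were seeded into 1536-well plates and, one day later, dosed by pin tool. Treatments were either a single drug or a fixed dose of an anchor drug with five library-drug doses (not always all listed) in √10 steps. After 5 days, nuclei were stained in a one-step fixation (final 0.05% Triton X-100, 1% formaldehyde, 1 ug/ml Hoechst) and counted on 4× images, and relative viability is the treated-to-vehicle nuclei ratio, as the median of duplicate plates.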
# MLN4924 + Pemetrexed = compound: NS(=O)(=O)OC[C@@H]1C[C@@H](n2ccc3c(N[C@H]4CCc5ccccc54)ncnc32)C[C@@H]1O [MLN4924] + Nc1nc2[nH]cc(CCc3ccc(C(=O)N[C@@H](CCC(=O)O)C(=O)O)cc3)c2c(=O)[nH]1 [Pemetrexed] (partner 0.2 µM)
# Outline: as §1
# GSK126 + Palbociclib = compound: CC[C@H](C)N1C=C(C2=C(C=C(C=C21)C3=CN=C(C=C3)N4CCNCC4)C(=O)NCC5=C(C=C(NC5=O)C)C)C [GSK126] + CC(=O)c1c(C)c2cnc(Nc3ccc(N4CCNCC4)cn3)nc2n(C2CCCC2)c1=O [Palbociclib] (partner 0.5 µM)
# Outline: as §1
# Carboplatin + Linsitinib = compound: C1CC(C1)(C(=O)O)C(=O)O.[NH2-].[NH2-].[Pt+2] [Carboplatin] + C[C@]1(O)C[C@@H](c2nc(-c3ccc4ccc(-c5ccccc5)nc4c3)c3c(N)nccn32)C1 [Linsitinib] (partner 1 µM)
# Outline: as §1
Cell Line,relative viability (Carboplatin + Bortezomib; first compound 0.08 µM),relative viability (Carboplatin + Bortezomib; first compound 0.253 µM),relative viability (Carboplatin + Bortezomib; first compound 0.8 µM),relative viability (Carboplatin + Bortezomib; first compound 2.53 µM),relative viability (Carboplatin + Bortezomib; first compound 8 µM),relative viability (MLN4924 + Pemetrexed; first compound 0.04 µM),relative viability (MLN4924 + Pemetrexed; first compound 0.1265 µM),relative viability (MLN4924 + Pemetrexed; first compound 0.4 µM),relative viability (MLN4924 + Pemetrexed; first compound 1.265 µM),relative viability (MLN4924 + Pemetrexed; first compound 4 µM),relative viability (GSK126 + Palbociclib; first compound 0.08 µM),relative viability (GSK126 + Palbociclib; first compound 0.253 µM),relative viability (GSK126 + Palbociclib; first compound 0.8 µM),relative viability (GSK126 + Palbociclib; first compound 2.53 µM),relative viability (GSK126 + Palbociclib; first compound 8 µM),relative viability (Carboplatin + Linsitinib; first compound 0.08 µM),relative viability (Carboplatin + Linsitinib; first compound 0.253 µM),relative viability (Carboplatin + Linsitinib; first compound 0.8 µM),relative viability (Carboplatin + Linsitinib; first compound 2.53 µM),relative viability (Carboplatin + Linsitinib; first compound 8 µM)
NCI-H1437,0.526,0.486,0.598,0.453,0.425,0.314,0.275,0.28,0.208,0.177,0.313,0.278,0.293,0.279,0.316,1.06,1.02,0.95,0.859,0.876
EMC-BAC-2,1.14,1.02,1.13,1.05,0.957,0.491,0.537,0.42,0.255,0.277,0.519,0.515,0.516,0.503,0.499,0.84,0.799,0.801,0.804,0.717
NCI-H520,0.611,0.609,0.767,0.599,0.523,0.489,0.368,0.271,0.193,0.172,0.21,0.233,0.221,0.209,0.268,0.997,1.09,1.02,0.943,0.784
NCI-H1993,1.14,1.16,0.915,0.928,0.908,0.592,0.471,0.421,0.441,0.382,0.751,0.605,0.606,0.797,0.632,0.773,0.798,0.779,0.817,0.701
HCC-827,1.18,1.09,1.09,1.02,0.991,0.278,0.271,0.266,0.176,0.17,0.492,0.54,0.486,0.483,0.469,1.04,0.891,0.857,0.936,0.955
NCI-H2087,0.945,0.699,0.781,0.833,0.521,0.639,0.71,0.562,0.118,0.0987,0.217,0.215,0.191,0.212,0.206,1.09,0.857,0.782,0.871,0.585
HARA,1.06,1.13,1.09,1.01,0.939,0.215,0.164,0.14,0.0838,0.183,0.325,0.238,0.249,0.296,0.279,0.94,0.985,0.703,0.853,0.904
NCI-H2126,1.14,1.14,1.15,1.15,1.04,0.659,0.676,0.435,0.278,0.281,0.343,0.359,0.327,0.39,0.354,0.724,0.741,0.713,0.687,0.667
LCLC-103H,1.13,1.33,1.06,1.24,1,0.477,0.504,0.285,0.315,0.329,0.452,0.546,0.466,0.441,0.5,1.15,1.1,1.05,1.21,1.04
SK-LU-1,1.79,1.26,1.44,1.21,0.582,0.94,0.829,0.26,0.194,0.212,0.402,0.364,0.412,0.389,0.414,1.23,1.02,1.11,1.06,0.624
EKVX,1.06,1.13,1.01,1.06,0.976,0.45,0.411,0.316,0.23,0.174,0.455,0.366,0.38,0.405,0.363,1.13,1.07,0.849,0.847,0.893
HCC-366,1.08,1.05,1.09,0.957,0.685,0.161,0.153,0.129,0.107,0.0292,0.391,0.399,0.425,0.407,0.374,0.848,0.595,0.48,0.437,0.265
NCI-H1650,0.221,0.195,0.193,0.198,0.178,0.377,0.471,0.248,0.168,0.185,0.393,0.359,0.37,0.377,0.32,,,,,
COR-L23,0.887,0.987,0.918,0.707,0.355,0.193,0.199,0.168,0.163,0.132,0.307,0.265,0.259,0.279,0.352,0.976,0.91,0.754,0.529,0.297
NCI-H647,1.03,1.24,0.952,1.07,0.686,0.156,0.119,0.0763,0.0395,0.0465,0.482,0.366,0.363,0.382,0.5,1.41,1.24,1.11,0.932,0.503
LXF-289,1.03,0.986,0.98,1.01,0.919,0.814,0.77,0.567,0.177,0.116,0.586,0.625,0.588,0.602,0.629,0.992,1.02,0.912,0.939,0.926
NCI-H1703,0.494,0.503,0.347,0.425,0.34,,,,,,,,,,,1.84,1.04,0.829,1.32,0.813
NCI-H1793,,,,,,0.892,0.698,0.914,0.433,0.303,0.351,0.318,0.299,0.351,0.273,1.04,1.1,0.675,0.848,0.839
NCI-H522,,,,,,0.876,0.859,0.612,0.323,0.383,1.09,0.772,0.991,1.06,1.07,,,,,
LOU-NH91,0.581,0.52,0.54,0.472,0.495,0.367,0.366,0.393,0.385,0.343,0.449,0.541,0.523,0.536,0.57,1.11,0.9,0.924,0.946,0.891

Cell Line,relative viability (Carboplatin + Bortezomib; first compound 0.08 µM),relative viability (Carboplatin + Bortezomib; first compound 0.253 µM),relative viability (Carboplatin + Bortezomib; first compound 0.8 µM),relative viability (Carboplatin + Bortezomib; first compound 2.53 µM),relative viability (Carboplatin + Bortezomib; first compound 8 µM),relative viability (MLN4924 + Pemetrexed; first compound 0.04 µM),relative viability (MLN4924 + Pemetrexed; first compound 0.1265 µM),relative viability (MLN4924 + Pemetrexed; first compound 0.4 µM),relative viability (MLN4924 + Pemetrexed; first compound 1.265 µM),relative viability (MLN4924 + Pemetrexed; first compound 4 µM),relative viability (GSK126 + Palbociclib; first compound 0.08 µM),relative viability (GSK126 + Palbociclib; first compound 0.253 µM),relative viability (GSK126 + Palbociclib; first compound 0.8 µM),relative viability (GSK126 + Palbociclib; first compound 2.53 µM),relative viability (GSK126 + Palbociclib; first compound 8 µM),relative viability (Carboplatin + Linsitinib; first compound 0.08 µM),relative viability (Carboplatin + Linsitinib; first compound 0.253 µM),relative viability (Carboplatin + Linsitinib; first compound 0.8 µM),relative viability (Carboplatin + Linsitinib; first compound 2.53 µM),relative viability (Carboplatin + Linsitinib; first compound 8 µM)
NCI-H1355,1.35,1.33,1.18,1.23,1.04,1.01,1.07,0.879,0.547,0.256,0.446,0.365,0.417,0.405,0.413,0.971,0.805,0.838,0.869,0.727
NCI-H1395,,,,,,0.847,0.773,0.678,0.349,0.305,0.656,0.568,0.597,0.681,0.505,1.02,1.05,0.82,0.751,0.576
NCI-H1648,,,,,,0.748,0.76,0.559,0.321,0.359,0.291,0.357,0.275,0.288,0.293,,,,,
ChaGo-K-1,1.08,0.837,0.916,0.786,0.406,0.272,0.258,0.251,0.179,0.181,0.93,0.905,0.914,1.04,0.914,,,,,
NCI-H358,,,,,,0.177,0.16,0.134,0.107,0.128,0.13,0.131,0.12,0.146,0.136,0.826,0.806,0.796,0.772,0.751
Calu-6,0.927,0.974,0.925,0.823,0.496,,,,,,,,,,,0.988,0.948,0.943,0.967,0.601
EBC-1,0.528,0.507,0.551,0.518,0.438,,,,,,,,,,,0.957,0.993,0.896,0.918,0.835
IA-LM,0.804,0.836,0.633,0.792,0.535,,,,,,,,,,,0.617,0.766,0.632,0.582,0.461
NCI-H1563,1.02,0.886,0.937,0.876,0.77,1.08,1.48,0.649,0.495,0.405,,,,,,1.32,1.13,1.22,1.26,1.04
NCI-H1299,1.07,1.01,1.07,0.982,0.902,,,,,,,,,,,1.02,0.993,0.953,0.965,0.956
NCI-H2342,,,,,,0.796,0.787,0.815,0.714,0.559,0.566,0.575,0.508,0.572,0.522,,,,,
NCI-H727,1.08,1.01,0.88,0.774,0.471,,,,,,0.681,0.641,0.67,0.75,0.659,0.456,0.298,0.314,0.347,0.277
SK-MES-1,,,,,,0.968,0.87,0.415,0.227,0.247,0.384,0.324,0.337,0.329,0.35,1.11,1.05,1.04,1.01,0.936
ABC-1,0.291,0.442,0.354,0.355,0.335,,,,,,0.768,0.735,0.675,0.98,0.675,0.633,0.939,0.779,0.864,0.703
SW 900,,,,,,,0.397,0.261,0.194,0.168,0.659,0.514,0.518,0.61,0.585,,,,,
LK-2,,,,,,0.25,0.248,0.203,0.117,0.106,0.682,0.657,0.738,0.558,0.681,0.634,0.765,0.458,0.428,0.726
NCI-H2170,,,,,,0.275,0.311,0.271,0.129,0.135,0.433,0.388,0.385,0.397,0.394,,,,,
A549,,,,,,,,,,,,,,,,0.715,0.717,0.666,0.522,0.446
NCI-H596,1.21,1.27,0.989,0.886,0.73,0.49,0.511,0.405,0.496,0.437,,,,,,1.15,1.09,0.904,0.809,0.771
NCI-H1944,,,,,,0.602,0.56,0.405,0.186,0.157,0.407,0.334,0.332,0.36,0.352,1.24,1.09,1.16,1.29,0.898
